Results on seven compounds are retold here after US4778790A, “Perhydrothiazepine and perhydroazepine derivatives and their therapeutic use” (Sankyo Company Limited, priority 1986, dated 1988).

Counter-ions that a name gives are not always drawn.

For the test, the target named is T1, ACE extracted from rabbit lungs (Oryctolagus cuniculus, UniProt P12822).
T1 construct: ACE extracted from rabbit lungs; from tissue; host or cells: rabbit lung
T1 sequence (P12822 34-1310): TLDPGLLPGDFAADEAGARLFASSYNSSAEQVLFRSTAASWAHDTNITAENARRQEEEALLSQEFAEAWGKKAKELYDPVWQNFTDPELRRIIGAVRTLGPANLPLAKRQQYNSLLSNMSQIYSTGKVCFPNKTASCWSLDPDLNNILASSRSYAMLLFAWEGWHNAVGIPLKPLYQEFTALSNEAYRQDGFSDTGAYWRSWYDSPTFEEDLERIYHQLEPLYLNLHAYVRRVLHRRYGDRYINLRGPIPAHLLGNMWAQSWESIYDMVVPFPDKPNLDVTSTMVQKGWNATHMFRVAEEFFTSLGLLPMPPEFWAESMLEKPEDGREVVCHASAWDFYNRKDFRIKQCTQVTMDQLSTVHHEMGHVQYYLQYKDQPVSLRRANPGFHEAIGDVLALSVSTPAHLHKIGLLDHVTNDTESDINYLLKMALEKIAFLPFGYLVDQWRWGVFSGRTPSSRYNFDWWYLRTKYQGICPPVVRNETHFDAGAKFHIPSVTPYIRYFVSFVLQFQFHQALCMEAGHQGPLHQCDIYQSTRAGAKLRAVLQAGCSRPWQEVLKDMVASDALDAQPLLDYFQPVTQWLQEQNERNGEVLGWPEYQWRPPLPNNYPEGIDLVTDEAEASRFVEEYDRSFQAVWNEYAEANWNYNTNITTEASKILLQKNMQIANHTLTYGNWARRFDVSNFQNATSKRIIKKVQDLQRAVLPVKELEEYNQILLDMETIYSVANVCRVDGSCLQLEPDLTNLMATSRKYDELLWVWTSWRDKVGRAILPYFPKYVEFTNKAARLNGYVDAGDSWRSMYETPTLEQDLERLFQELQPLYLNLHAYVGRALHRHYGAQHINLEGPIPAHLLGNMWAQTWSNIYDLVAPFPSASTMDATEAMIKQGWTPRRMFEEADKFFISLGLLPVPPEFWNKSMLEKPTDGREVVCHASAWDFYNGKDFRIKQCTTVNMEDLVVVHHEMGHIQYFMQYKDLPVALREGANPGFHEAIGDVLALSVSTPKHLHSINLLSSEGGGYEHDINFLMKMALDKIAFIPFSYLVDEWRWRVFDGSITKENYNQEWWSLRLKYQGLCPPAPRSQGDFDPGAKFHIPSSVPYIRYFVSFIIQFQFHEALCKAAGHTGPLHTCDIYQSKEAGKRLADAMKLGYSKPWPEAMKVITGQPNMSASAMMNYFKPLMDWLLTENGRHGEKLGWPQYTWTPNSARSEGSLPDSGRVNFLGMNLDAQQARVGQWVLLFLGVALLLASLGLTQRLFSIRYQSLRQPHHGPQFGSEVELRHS
The experiment in a line: in vitro ACE inhibition (hippurylhistidylleucine substrate, procedure of Cushman et al.). The format is biochemical. To be noted: rabbit lung ACE, borate buffer with NaCl, pH 8.3, 37° C., 30 minutes, read-out: IC50 (concentration required to inhibit the activity of ACE by 50% in vitro). From the text:
As noted above, the compounds of the present invention have the ability to inhibit the activity of ACE, the enzyme which converts angiotensin I to angiotensin II and also inactivates bradykinin. The physiological activity of the compounds of the invention can be evaluated by determining the concentration of the test compound required to inhibit the activity of ACE by 50% in vitro (IC50), for example by the procedure of D. W. Cushman et al. [Biochemical Pharmacology, 20, 1637 (1971)]. Specifically, solutions of ACE extracted from rabbit lungs and, as substrate, hippurylhistidylleucine, to which had been added the test compound at various concentrations, were added to a borate buffer solution containing sodium chloride, and the pH was adjusted to a value of 8.3. The enzymatic reaction was allowed to proceed at 37° C. for 30 minutes, after which time the reaction was terminated by adding 1N aqueous hydrochloric acid. […] The residual hippuric acid was dissolved in water. The amount of hippuric acid in the resulting aqueous solution was determined by the absorbency to ultraviolet radiation at 228 nm. The resulting values were then plotted to form a curve indicating the relationship between the amount of hippuric acid formed and the concentration of the test compound. The IC50 value can be obtained by reading on this curve the concentration of the test compound which reduces the amount of hippuric acid formed to one half of that formed when no test compound is present.
For the compound `O=C(O)CN1C[C@@H](c2ccccc2)CC[C@H](N[C@@H](CCCCC2CCNCC2)C(=O)O)C1=O` (relative stereo) [G, rel-α-{3(S)-[1(S)-Carboxy-5-(4-piperidyl)pentylamino]-2-oxo-6(R)-phenylperhydroazepin-1-yl}acetic acid], the IC50 is 3.7 nM. Regarding `NCCCC[C@H](N[C@H]1CS[C@H](c2cccs2)CN(CC(=O)O)C1=O)C(=O)O` [A, α-{6(R)-[5-Amino-1(S)-carboxypentylamino]-5-oxo-2(S)-(2-thienyl)perhydro-1,4-thiazepin-4-yl}acetic acid dihydrochloride], the IC50 came out at 3.3 nM. For `NCCCCCC[C@H](N[C@H]1CS[C@H](c2cccs2)CN(CC(=O)O)C1=O)C(=O)O` [B, α-{6(R)-[7-Amino-1(S)-carboxyheptylamino]-5-oxo-2(S)-(2-thienyl)perhydro-1,4-thiazepin-4-yl}acetic acid] the value was 2 nM. Take `NCCCCCCC(NC1CSC(c2ccccc2)CN(CC(=O)O)C1=O)C(=O)O` [C, rel-α-}6(R)-[7-Amino-1(S)-carboxyheptylamino]-5-oxo-2(R)-phenylperhydro-1,4-thiazepin-4-yl}acetic acid]: the IC50 came to 3.1 nM.

`NCCCCCCC[C@H](N[C@H]1CS[C@H](c2cccs2)CN(CC(=O)O)C1=O)C(=O)O` [D]: the IC50 was found to be 1.6 nM. As for `NCCCCCCCC(NC1CCC(c2ccccc2)CN(CC(=O)O)C1=O)C(=O)O` [E, rel-α-{3(S)-[8-Amino-1(S)-carboxyoctylamino]-2-oxo-6(R)-phenylperhydrozepin-1-yl}acetic acid], the IC50 was 4.1 nM. As for `O=C(O)CN1C[C@@H](c2cccs2)SC[C@H](N[C@@H](CCCCC2CCNCC2)C(=O)O)C1=O` [F, α-{6(R)-[1(S)-Carboxy-5-(4-piperidyl)pentylamino]-5-oxo-2(S)-(2-thienyl)perhydro-1,4-thiazepin-4-yl}acetic acid], the IC50 is 1.6 nM.
